Measured values taken from article PMC11610669, “A Spectroscopic Study on the Amyloid‐β Interaction with Clicked Peptide‐Porphyrin Conjugates: a Vision Toward the Detection of Aβ Peptides in Aqueous Solution” (Chembiochem, 2024).
“Also recorded” adds a separate entry of the source.

Assays:
Aβ42 [1] = target: T1, Aβ42 (Homo sapiens, UniProt P05067); assay: UV-Vis of conjugates with equimolar Aβ42; type: biochemical; settings: 5 μM conjugate, equimolar Aβ42, 10 mM phosphate buffer pH 7.4, 0, 24, 48 and 120 h
Experimental: (§1) The UV‐Vis spectra of porphyrin‐peptide conjugates (5 μM) were recorded in the presence of an equimolar ration of Aβ42 monomers at 0, 24, 48 and 120 h (Figure 2S). […] Therefore, the interaction of the peptide‐porphyrin conjugates with Aβ was further studied using CD spectroscopy. The Aβ42 aggregation process was monitored either in the absence or in the presence of an equimolar amount of the conjugated peptides. A series of CD control experiments were preventively carried out to assess the propensity of the porphyrin‐peptide conjugates to adopt a β‐sheet conformation. The corresponding CD curves are shown in the supplementary material (Figure 3S). […] We then evaluated the ability of the porphyrin‐peptide conjugates to affect the Aβ42’s aggregation process. This was accomplished by running a series of CD experiments on the binary systems in the same experimental conditions as the control CD measurements. A 5 μM Aβ42 sample was used as a positive control of the aggregation process (Figure 3, panel a). In this case, the curve profiles indicate that at 0 h, Aβ42 is predominantly in the random coil conformation, as evidenced by the negative ellipticity around 200 nm. […] The typical dichroic profile characterized by a negative ellipticity at λ=222 nm and a positive band at λ=200 is indicative of this event (Figure 3, panel a).
Spectra were recorded on a Jasco V‐670 Spectrophotometer at room temperature. All measurements were performed in the 300–650 nm wavelength region, in a 10 mM phosphate buffer solution at pH 7.4 using a 1 cm path length quartz cell. The spectra of all the peptide‐porphyrin conjugates, either in the absence or in the presence of equimolar Aβ42, were acquired at 5 μM. In some cases, the same sample solution was used to run the CD spectra. The final concentrations of Aβ42 and peptide conjugates were 5 μM (1 : 1 molar ratio).

Aβ8–20 = assay: CD of conjugate with Aβ8–20 fragment; type: binding
Experimental: To better visualize how the induced signal increases as Aβ42 adopts the β‐sheet conformation, a comparative graph displaying the absolute value of the CD intensities at the maximum absorption wavelength for each derivative, either in the presence or absence of Aβ42 over the same time interval, is reported in the SI (Figure 7S). […] (Figure 8S panel a). […] We assume that the conjugate Zn‐Ph‐Pep conjugate could similarly interact with the Aβ8–20 fragment.
(§2) Spectra were recorded on a J‐810 spectrometer (Jasco, Japan) under a constant flow of N2 at room temperature. The CD measurements were performed in the wavelength regions (190–260 nm, 195–350 nm and 350–500 nm) using a 1 cm path length quartz cell. All aggregation kinetics were monitored up to 120 hours. The CD spectra were recorded for Aβ42 (5 μM and 20 μM) monomer in the absence or in the presence of porphyrin‐peptide conjugates (5 μM and 20 μM for the 1 : 1 molar ratios). Monomerized samples of Aβ42 (5 μM and 20 μM) were solubilized in 50 μL of NaOH 20 mM (2,5 %) and after were diluted with 1950 μL of 10 mM phosphate buffer at pH 7.4 pure or containing the solubilized conjugates.

Aβ42 [2] = target: T1, Aβ42; assay: bis-Ans fluorescence anti-fibrillogenic assay; type: biochemical; settings: Aβ42 20 μM, 1:1, 60 μM Bis-Ans solution, phosphate buffer pH 7.4, 37 °C, 65 h, ex/em 385/510 nm, triplicate
Description: We also carried out fluorescence assays to evaluate the anti‐fibrillogenic ability of the porphyrin‐peptide conjugates. We used the bis‐Ans (4,4’‐Dianilino‐1,1’‐binaphtyl‐5,5’disulphonic acid) as a chromophore instead of the typical Th−T (Thioflavin‐T), to avoid any potential interference that might occur between the porphyrin and Th−T, in both the excitation and emission wavelength regions. The bis‐Ans probe is sensitive to Aβ fibril formation, and it specifically binds to solvent‐exposed hydrophobic surfaces leading to an increase in its fluorescence emission maximum at 510 nm, in our case.[47] The bis‐Ans fluorescence kinetics were recorded with Aβ42 (20 μM) alone or in the presence of the porphyrin‐peptide conjugates at a 1 : 1 molar ratio. The kinetic profiles of the porphyrin‐peptide conjugates in the absence of Aβ42 were also acquired for comparison (Figure 4S). […] The obtained fluorescence intensities were compared with the values obtained for Aβ42 alone.
Bis‐Ans fluorescence kinetics were measured on a Flash Thermo Varioskan spectrofluorometer with excitation and emission at 385 and 510 nm, respectively. Aβ42, alone or in the presence of the porphyrin‐peptide conjugates in a 1 : 1 molar ratio, was dissolved in 10 mM aq NaOH (30 μL). […] Readings were taken every 10 min, after weak shaking for 10 s. The fluorescence intensity was monitored for 65 h. […]

Aβ42 [3] = target: T1, Aβ42; assay: Sensing: induced CD in porphyrin Soret region with Aβ42; type: binding; settings: Aβ42 20 μM, 1:1, 350–500 nm, 10 mM phosphate buffer pH 7.4
Experimental: The Grating‐Coupled Interferometry (GCI) is a widely used analytical technique for characterizing intermolecular interactions. It allows quantitative measurements of both the affinity and the kinetics of the binding events. This high sensitivity label‐free method was exploited to measure the interactions of Aβ42 with Cu‐Ph‐Pep , Ph‐Pep , and Zn‐Ph‐Pep (Figure 5S). Control experiments with pristine MCPTPyP and the peptide GPGKLVFF ( Pep ) were carried out for comparison. The calculated association and dissociation kinetic constants (kon and koff, respectively) and the thermodynamic binding constant (KD), are summarized in Table 1. The obtained values indicate that all the conjugates show good affinities with Aβ42. It is also clear from Table 1 that the peptide moiety is fundamental for the molecular recognition of the Aβ42 peptide.[48] […] For the sake of comparison, the CD spectra of the porphyrin‐peptide conjugates at 20 μM were also recorded in the same experimental conditions, both in the far‐UV and Visible regions (Figure 6S).
Spectra were recorded on a J‐810 spectrometer (Jasco, Japan) under a constant flow of N2 at room temperature. […] All aggregation kinetics were monitored up to 120 hours. The CD spectra were recorded for Aβ42 (5 μM and 20 μM) monomer in the absence or in the presence of porphyrin‐peptide conjugates (5 μM and 20 μM for the 1 : 1 molar ratios). […]

[4] = CD control: β-sheet propensity of the conjugates alone; type: physicochemical; settings: 10 mM phosphate buffer pH 7.4, room temperature, up to 120 h
Experimental: as §1, §2

T1 sequence (P05067 672-713 limits assumed): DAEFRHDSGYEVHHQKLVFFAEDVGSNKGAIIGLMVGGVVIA

COC(=O)[C@H](Cc1cn(CCCC[C@H](NC(=O)CNC(C)=O)C(=O)N2CCC[C@H]2C(=O)NCC(=O)N[C@@H](CCCCN)C(=O)N[C@@H](CC(C)C)C(=O)N[C@H](C(=O)N[C@@H](Cc2ccccc2)C(=O)N[C@@H](Cc2ccccc2)C(N)=O)C(C)C)nn1)NC(=O)c1ccc(-c2c3nc(c(-c4cc[n+](C)cc4)c4ccc([nH]4)c(-c4cc[n+](C)cc4)c4nc(c(-c5cc[n+](C)cc5)c5ccc2[nH]5)C=C4)C=C3)cc1 [Zn‐Ph‐Pep]
UV-Vis spectral change in presence of Aβ42 (Aβ42 [1]): may suggest a rapid formation of aggregated species
conformation of Aβ8–20/conjugate mixture (Aβ8–20; Far-UV CD): significant amount of random coil conformation
induced CD signal in visible region with Aβ8–20 (Aβ8–20; same experimental conditions as with Aβ42): no induced CD signal is clearly detectable
effect on Aβ42 fibril formation (bis-Ans fluorescence) (Aβ42 [2]): might support or even accelerate Aβ42’s fibril formation
induced CD signal in Soret region with Aβ42 (Aβ42 [3]): induced dichroic signal; also recorded: generates a distinct CD signal
propensity to adopt β-sheet conformation (conjugate alone) [4]: being faster in this process
